Test results taken from patent US8865741B2, “Aminoindane compounds and use thereof in treating pain” (Asana Biosciences, LLC, priority 2011, dated 2014).

How the values were obtained:
[1] = test system: Male Sprague Dawley (SD) rats; assay: In vivo assay of mechanical nociception (rat pinch model, perisciatic injection); conditions: perisciatic
[2] = test system: sodium current in DRG neurons; conditions: co-applied with 1 μM capsaicin; whole-cell voltage clamp; read-out: in vitro apparent affinity (IC50) for blocking sodium current in DRG neurons; cited from earlier work
[3] = test system: sodium channel in hTRPV1-N1E115 cells; assay: FLIPR membrane potential assay of sodium channel response in hTRPV1-N1E115 cells, with (47° C.) or without (25° C.) heat activation of hTRPV1; type: cell-based
In short: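 hTRPV1-N1E115 cells were loaded with membrane potential blue dye, and compound was added. Duplicate plates were either heated to 47 °C for 10 min then held 30 min at ~25 °C, or kept 40 min at room temperature. Activity was attenuation of the FLIPR Tetra signal induced by 100 μM veratridine (final).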

[4] = test system: rats; assay: Sciatic function assay (foot print score, motor function); type: in vivo, rat; conditions: 200 μL of 0.2% with 2% lidocaine
Description: The sciatic function test is a simple observational gait analysis that provides a rudimentary assessment of hind-limb motor function according to a predetermined scoring scale based on a visual inspection of the animals foot prints as it ambulates on a flat surface (the basic principles of this test are provided in Lowdon (Journal of Neuroscience Methods 24(3), 1988, 279-281)). Following the injection of a test substance(s), the animal's hind paws are inked and it is then placed on a flat paper surface and permitted to ambulate freely. The footprint pattern left by the inked footpads on the paper is inspected and assigned a ‘foot print score’ based on a subjective assessment. […] A footprint score of 1-3 reflected that the weight bearing was primarily on the knees, that the ankle and toes were used sparingly, the toes were curled, and or the plantar surface of the paw is uplifted in a concave fashion. A footprint score of 4-6 reflects that the weight bearing is primarily on the knees and angle, with very little weight bearing on the toes. A footprint score of 6-10 reflects that the weight bearing is distributed over the knee, ankle, and toes and that there is an occasional sparing of the knee joints.

[5] = test system: rats; assay: Cutaneous anesthetic activity, cutaneous trunci muscle reflex (CTMR) pin-prick model; type: in vivo, rat; conditions: 100 μL sub-cutaneous injection, 0.2%, with lidocaine 2% vs alone
Method: Rats were subjected to several days of acclimatization to the environment and the investigator prior to entering the study. About 24 hours before each experiment, the skin on the back of male rats was shaved using electronic clippers. The anesthetic action of test agents, following subcutaneous injection was determined using a “pin-prick” method as described by Khan (Khan et al., Anesthesiology, January 2002, 96(1): 109-116). Injection volumes were standardized at 100 μL, each injection caused a small wheal to develop—the boundary of which was marked with ink. The cutaneous trunci muscle reflex (CTMR) is a reflex movement of the skin due to twitches of the lateral thoracospinal muscles elicited by noxious stimulation of the dorsal cutaneous area. An 18-guage needle was used as the noxious stimulus; six stimuli were presented to an area of ‘normal’ skin to determine baseline sensitivity and this was then repeated in the area of the wheal. […] Data were represented as % maximal possible effect (MPE) where 100% indicates complete lack of response to each of the six needle presentations in the injected area. The extent of local anesthesia was assessed at regular intervals in order to generate efficacy-duration time plots.

IC50 ([3]; 47° C., class symbols, read-out: hTRPV1-N1E IC50 (μM) 47° C.) [µM] | duration of marked motor deficit post injection ([4]; unilateral peri-sciatic injection) [h] | time of gradual return of foot print score to normal ([4]; remaining hours of assessment after the first 6 hours) [h] | Compound | Average Time of Analgesia ([1]; test compound 0.5%, lidocaine 0%, total injection 100 μL) [h] | Average Time of Analgesia ([1]; test compound 0.5%, lidocaine 0%, total injection 200 μL) [h] | Average Time of Analgesia ([1]; test compound 0.5%, lidocaine 2%, total injection 100 μL) [h] | Average Time of Analgesia ([1]; test compound 0.5%, lidocaine 2%, total injection 200 μL) [h] | IC50 [2] [µM] | hTRPV1-N1E Nav 0.1 mM (% inhibition) 25° C. ([3]; 0.1 mM, 25° C. (no heat activation of hTRPV1)) [%] | Average Time of Analgesia ([1]; test compound 0.2%, lidocaine 2%, total injection 200 μL) [h] | duration of analgesia, combination with lidocaine compared to compound alone [5]
 |  |  | CC[N+](CC)(CC)CC(=O)Nc1c(C)cccc1C [QX-314, reference compound] | 2 | 2 | 6 | 9 | 30 |  |  | 
1 to 10 | 2 | ~20 | Cc1ccccc1N(CC[C@H]1CCCC[N+]1(C)C)C1Cc2ccccc2C1.[Br-] [Example 43, (R)-2-[2-(Indan-2-yl-o-tolyl-amino)-ethyl]-1,1-dimethyl-piperidinium bromide] |  |  |  |  |  | 93.9 | 28 | extended duration of analgesia
